Patent US20230055961A1, “PENTAFLUOROBENZENESULFONAMIDE DERIVATIVES AND USES THEREOF” (Dunad Therapeutics Ltd., priority 2019, published 2023)
pIC50: −log10 of the molar value. Like-named read-outs stand apart in the source and are kept apart here.

Experiments:
BTK [1] = molecular target: T1, BTK (Homo sapiens, UniProt Q06187); assay: Total BTK degradation assay (Total BTK-HTRF) in RAMOS cells; type: cell-based
Procedure: A Total BTK-HTRF assay (Cisbio Total BTK cat #63ADK064PEG) was performed to quantitate the ability of test compounds to degrade BTK protein levels in RAMOS cells. This total protein assay monitors the steady state protein level in a sandwich assay format using two different specific antibodies after lysis of the cell-membrane. The antibodies recognise two different epitopes on BTK and are labelled with Eu3^+-cryptate (donor) and d2 (acceptor). […] The specific signal modulates positively in proportion to the total concentration of BTK.
In order to evaluate the degradation of BTK by test compounds, a total BTK degradation assay was performed (Cisbio Total BTK cat #63ADK064PEG). The frozen stock solutions of the two different BTK antibodies were diluted 20-fold with the detection buffer and pre-mixed before use in the assay. Supplemented lysis buffer (4×) was prepared by diluting the blocking reagent solution 25-fold with lysis buffer (4×) and mixing gently.
were plated at a density of 50K cells/well (8 uL) in RPMI medium with 10% FBS into 384-well white detection plates. […] The plate was read on an Biotek Synergy Neo2 plate reader using 330 nm excitation, 620 nm-donor emission and 670 nm-acceptor emission.

FGFR1 = FGFR1 (Homo sapiens, UniProt P11362); assay: In vitro kinase inhibition studies (Table 9), FGFR1; type: biochemical
Chain of FGFR1 (P11362 22-822, species assumed): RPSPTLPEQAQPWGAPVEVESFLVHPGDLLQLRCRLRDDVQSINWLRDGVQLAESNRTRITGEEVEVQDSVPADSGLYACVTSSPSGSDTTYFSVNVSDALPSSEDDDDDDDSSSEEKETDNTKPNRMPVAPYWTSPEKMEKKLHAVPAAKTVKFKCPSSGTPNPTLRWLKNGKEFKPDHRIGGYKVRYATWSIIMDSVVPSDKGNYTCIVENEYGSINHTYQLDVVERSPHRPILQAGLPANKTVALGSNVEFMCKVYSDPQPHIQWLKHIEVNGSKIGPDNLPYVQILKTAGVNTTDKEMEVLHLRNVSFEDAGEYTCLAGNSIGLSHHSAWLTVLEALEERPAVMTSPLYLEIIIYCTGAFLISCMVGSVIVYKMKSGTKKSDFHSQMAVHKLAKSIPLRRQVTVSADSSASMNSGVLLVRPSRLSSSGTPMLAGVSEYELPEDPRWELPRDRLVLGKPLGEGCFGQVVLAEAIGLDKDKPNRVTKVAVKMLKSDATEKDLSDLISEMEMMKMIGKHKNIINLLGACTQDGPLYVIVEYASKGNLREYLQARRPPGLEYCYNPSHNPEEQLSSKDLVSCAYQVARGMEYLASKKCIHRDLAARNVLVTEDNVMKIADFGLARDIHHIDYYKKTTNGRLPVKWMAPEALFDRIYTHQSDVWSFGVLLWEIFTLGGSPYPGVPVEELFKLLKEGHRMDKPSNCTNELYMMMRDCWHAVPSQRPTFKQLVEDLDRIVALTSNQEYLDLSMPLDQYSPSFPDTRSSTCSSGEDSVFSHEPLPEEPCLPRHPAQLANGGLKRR

BTK [2] = molecular target: T1, BTK; assay: In vitro BTK inhibition, biochemical IC50 (no preincubation); conditions: Table 8
Procedure: IC50 Values (nM) for the Inhibition of BTK Activity
(§1) In vitro BTK and JAK3 inhibition studies are shown in Table 7 and Table 8 (no preincubation).

FGFR4 = FGFR4 (Homo sapiens, UniProt P22455); assay: In vitro kinase inhibition studies (Table 9), FGFR4; type: biochemical
Chain of FGFR4 (P22455 22-802, species assumed): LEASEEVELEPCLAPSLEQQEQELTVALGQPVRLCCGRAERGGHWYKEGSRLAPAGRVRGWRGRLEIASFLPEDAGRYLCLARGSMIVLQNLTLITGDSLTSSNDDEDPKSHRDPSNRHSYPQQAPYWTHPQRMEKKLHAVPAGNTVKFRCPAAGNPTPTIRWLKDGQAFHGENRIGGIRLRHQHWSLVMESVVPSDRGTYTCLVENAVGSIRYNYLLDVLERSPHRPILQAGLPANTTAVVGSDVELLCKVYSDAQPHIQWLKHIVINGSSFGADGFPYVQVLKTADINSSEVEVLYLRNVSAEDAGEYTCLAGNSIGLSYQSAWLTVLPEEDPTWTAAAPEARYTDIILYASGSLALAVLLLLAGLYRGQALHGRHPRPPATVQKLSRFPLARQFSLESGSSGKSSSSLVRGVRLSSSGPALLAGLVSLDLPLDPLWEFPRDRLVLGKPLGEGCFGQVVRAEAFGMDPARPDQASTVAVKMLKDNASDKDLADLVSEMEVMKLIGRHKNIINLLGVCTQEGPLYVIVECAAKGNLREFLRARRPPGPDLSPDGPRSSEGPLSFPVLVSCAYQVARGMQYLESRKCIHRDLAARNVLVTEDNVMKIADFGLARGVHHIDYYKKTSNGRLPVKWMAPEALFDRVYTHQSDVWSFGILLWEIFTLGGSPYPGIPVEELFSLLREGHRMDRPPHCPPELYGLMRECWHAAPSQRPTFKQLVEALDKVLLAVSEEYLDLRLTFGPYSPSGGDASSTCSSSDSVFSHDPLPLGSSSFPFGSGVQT

BTK [3] = molecular target: T1, BTK; assay: BTK washout experiment (residual activity after 400-fold dilution); type: biochemical; conditions: 6-h incubation of 50 nM BTK with 177 nM compound, relative to DMSO alone
Procedure: After a 3-h incubation of 40 nM BTK in the presence of 296 nM of compound Compound 5-1, a 400-fold dilution was performed to remove excess inhibitor.
By way of contrast, a “washout” experiment performed with ARQ-531 gives a very different result, because this compound lacks a warhead and is known to inhibit BTK reversibly. After a 6-h incubation of 50 nM BTK in the presence of 177 nM of ARQ-531, a 400-fold dilution was performed to remove excess inhibitor. […] This indicates to one of ordinary skill in the art that the enzyme was not inhibited irreversibly during the incubation with ARQ-531.

RL cells = assay: IC50 of Ibrutinib analogs against human cancer cells, RL cells (Table 14); type: cell-based; conditions: Homo sapiens, RL
Procedure: 1×10^4 cells (NHF cells)/well are plated in 96-well assay plates in culture medium. […] After 24 hrs, test compounds and vehicle controls are added to appropriate wells so the final volume is 100p in each well. The cells are cultured for the desired test exposure period (72 hrs) at 37° C. and 5% CO2. The assay plates are removed from 37° C. incubator and 20 μl/well of CellTiter-Blue® Reagent is added. The plates are incubated using standard cell culture conditions for 1-4 hours and the plates are shaken for 10 seconds and record fluorescence at 560/590 nm. […] Therapeutic index=(IC50 human fibroblasts/IC50 […] )

[4] = test system: normal pooled human fibroblasts; assay: IC50 of Ibrutinib analogs against normal human cells, pooled human fibroblasts (Table 14); type: cell-based; conditions: Fibroblast, TABLE 9
Procedure: Anti-cancer efficacy of exemplary compounds of this application is assessed in vitro in different cancer cell lines. Cell viability is examined following treatment at various concentration of inhibitor (0.097656-50 μM) using a cell Titer-Blue cell viability assay. 1×10^4 cells (NHF cells)/well are plated in 96-well assay plates in culture medium. All cells are grown in DMEM, IMDM and RPMI-1640 supplemented with 10% FBS. After 24 hrs, test compounds and vehicle controls are added to appropriate wells so the final volume is […] in each well. The cells are cultured for the desired test exposure period (72 hrs) at 37° C. and 5% CO2. The assay plates are removed from 37° C. incubator and 20 μl/well of CellTiter-Blue® Reagent is added. The plates are incubated using standard cell culture conditions for 1-4 hours and the plates are shaken for 10 seconds and record fluorescence at 560/590 nm.
Therapeutic index=(IC50 human fibroblasts/IC50 RLcells)

JAK3 = molecular target: T2, JAK3 (Homo sapiens, UniProt P52333); assay: In vitro JAK3 inhibition, biochemical IC50 (no preincubation); conditions: Table 8
T2 sequence (P52333 1-1124): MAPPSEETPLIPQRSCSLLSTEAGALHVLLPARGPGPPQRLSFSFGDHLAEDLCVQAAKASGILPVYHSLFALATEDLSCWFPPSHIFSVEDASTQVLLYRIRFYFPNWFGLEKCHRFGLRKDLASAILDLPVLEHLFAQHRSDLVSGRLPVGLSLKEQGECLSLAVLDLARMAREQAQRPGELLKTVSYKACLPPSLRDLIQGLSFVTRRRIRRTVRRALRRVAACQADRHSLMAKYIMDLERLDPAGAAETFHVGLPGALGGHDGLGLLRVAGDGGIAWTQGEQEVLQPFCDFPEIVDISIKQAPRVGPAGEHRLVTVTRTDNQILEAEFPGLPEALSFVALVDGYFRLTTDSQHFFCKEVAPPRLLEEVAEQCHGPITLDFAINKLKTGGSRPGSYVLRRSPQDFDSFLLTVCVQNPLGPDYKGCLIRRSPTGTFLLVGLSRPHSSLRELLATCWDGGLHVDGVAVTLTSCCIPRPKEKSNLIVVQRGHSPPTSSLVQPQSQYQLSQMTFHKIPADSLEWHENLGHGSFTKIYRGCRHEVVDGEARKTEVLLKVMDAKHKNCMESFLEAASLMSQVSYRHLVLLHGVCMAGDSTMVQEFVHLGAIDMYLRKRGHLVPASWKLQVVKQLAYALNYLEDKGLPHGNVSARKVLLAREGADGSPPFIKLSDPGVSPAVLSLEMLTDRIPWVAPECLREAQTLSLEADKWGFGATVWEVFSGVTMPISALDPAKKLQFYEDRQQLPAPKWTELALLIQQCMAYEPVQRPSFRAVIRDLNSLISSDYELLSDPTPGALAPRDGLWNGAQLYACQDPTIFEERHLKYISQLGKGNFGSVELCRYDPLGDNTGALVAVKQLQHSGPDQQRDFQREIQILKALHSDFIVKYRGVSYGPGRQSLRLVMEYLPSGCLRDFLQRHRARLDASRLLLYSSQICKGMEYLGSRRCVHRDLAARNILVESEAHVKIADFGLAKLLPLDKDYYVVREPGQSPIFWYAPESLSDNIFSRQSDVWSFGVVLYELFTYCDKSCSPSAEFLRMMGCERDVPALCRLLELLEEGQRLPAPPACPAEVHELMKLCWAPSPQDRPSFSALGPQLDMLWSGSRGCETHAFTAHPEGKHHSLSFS
Procedure: as §1

T1 sequence (Q06187 whole entry, species assumed): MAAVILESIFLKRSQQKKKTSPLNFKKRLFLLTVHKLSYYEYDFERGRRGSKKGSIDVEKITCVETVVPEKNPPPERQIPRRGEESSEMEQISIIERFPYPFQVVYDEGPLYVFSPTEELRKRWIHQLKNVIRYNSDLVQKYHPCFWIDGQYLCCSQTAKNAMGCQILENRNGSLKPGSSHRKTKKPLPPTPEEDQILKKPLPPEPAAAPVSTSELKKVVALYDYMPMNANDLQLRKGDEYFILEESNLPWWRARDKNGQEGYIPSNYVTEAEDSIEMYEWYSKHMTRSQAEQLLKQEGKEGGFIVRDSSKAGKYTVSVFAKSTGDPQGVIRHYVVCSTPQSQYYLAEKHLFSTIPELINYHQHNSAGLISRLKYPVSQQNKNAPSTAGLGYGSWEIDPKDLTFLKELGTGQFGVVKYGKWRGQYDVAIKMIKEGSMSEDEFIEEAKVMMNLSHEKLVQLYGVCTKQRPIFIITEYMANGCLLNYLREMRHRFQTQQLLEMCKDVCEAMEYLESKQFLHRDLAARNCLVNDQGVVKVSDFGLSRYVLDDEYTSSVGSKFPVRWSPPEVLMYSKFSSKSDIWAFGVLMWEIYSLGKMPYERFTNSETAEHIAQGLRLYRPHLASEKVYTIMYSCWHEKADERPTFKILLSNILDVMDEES

## COCCOc1ccc(Nc2ncc(F)c(Nc3cccc(NS(=O)(=O)c4c(F)c(F)c(F)c(F)c4F)c3)n2)cc1 [Compound 5-15, 2,3,4,5,6-pentafluoro-N-(3-((5-fluoro-2-((4-(2-methoxyethoxy)phenyl)amino)pyrimidin-4-yl)amino)phenyl)benzenesulfonamide]
BTK [1]
  Percent residual BTK after 24 hours with test compound (5 μM): 75%
FGFR1
  pIC50: 8.00 to 10.00
BTK [2]
  pIC50: 6.00 to 7.00
FGFR4
  pIC50: 6.52 to 8.00

## O=C(c1ccc(Oc2ccccc2)cc1Cl)c1c[nH]c2ncnc(N[C@@H]3CC[C@@H](CO)OC3)c12 [ARQ-531]
BTK [3]
  enzyme activity after washout: recovered all of its activity

## C=CC(=O)N1CCC[C@@H](n2nc(-c3ccc(Oc4ccccc4)cc3)c3c(N)ncnc32)C1 [Ibrutinib, reference compound]
RL cells; RL cells, read-out: IC50 in RL cells
  pIC50: 4.99
RL cells; TABLE 9, read-out: RL (IC50)
  pIC50: 4.99
RL cells; Table 14, RL human non-Hodgkin's lymphoma B cell line, read-out: RL (IC50)
  pIC50: 4.99
[4]
  pIC50: 4.57

## C[C@H]1CC[C@@H](Nc2ncnc3[nH]ccc23)CN1S(=O)(=O)c1c(F)c(F)c(F)c(F)c1F [Compound 5-8, N-((3R,6S)-6-methyl-1-((perfluorophenyl)sulfonyl)piperidin-3-yl)-7H-pyrrolo[2,3-d]pyrimidin-4-amine]
JAK3
  JAK3 (IC50, nM): E (E: >1000 nM to ≤ 0,000 nM)

## COCCOc1ccc(Nc2ncc(F)c(NCCCNS(=O)(=O)c3c(F)c(F)c(F)c(F)c3F)n2)cc1 [Compound 5-7, 2,3,4,5,6-pentafluoro-N-(3-((5-fluoro-2-((4-(2-methoxyethoxy)phenyl)amino)pyrimidin-4-yl)amino)propyl)benzenesulfonamide]
BTK [1]
  Percent residual BTK after 24 hours with test compound (5 μM): 63%
FGFR1
  pIC50: 5.70 to 6.52
FGFR4
  pIC50: 5.70 to 6.52

## CN(CCNc1ncnc2[nH]ccc12)S(=O)(=O)c1c(F)c(F)c(F)c(F)c1F [Compound 5-11, N-(2-((7H-pyrrolo[2,3-d]pyrimidin-4-yl)amino)ethyl)-2,3,4,5,6-pentafluoro-N-methylbenzenesulfonamide]
JAK3
  JAK3 (IC50, nM): E (E: >1000 nM to ≤ 0,000 nM)

## O=S(=O)(NCCNc1ncnc2[nH]ccc12)c1c(F)c(F)c(F)c(F)c1F [Compound 5-10, N-(2-((7H-pyrrolo[2,3-d]pyrimidin-4-yl)amino)ethyl)-2,3,4,5,6-pentafluorobenzene sulfonamide]
JAK3
  JAK3 (IC50, nM): E (E: >1000 nM to ≤ 0,000 nM)
